The record followed here is patent publication US20080108085A1 (priority 2001, published 2008).

Where two headings read alike, the source gives them in different places. Where only a bound is given, the exact number is not on record here.

The subject of the assay is surface-bound mouse prions (RML). The settings on record: for Incubation time s.d. / Sick/total: Table 4, infectious wires treated: sodium hydroxide 1M 1 h, formaldehyde 10% 1 h, guanidinium thiocyanate 4M 16 h, 25° C.; for Infectivity of treated prion-coated wires: sodium hydroxide 1 M 1 h, guanidinium thiocyanate 4 M 16 h, formaldehyde 10%.

For `C=O` [Formaldehyde], the Incubation time s.d. worked out at 92 ± 8 days and the Sick/total was 6/6. This molecule showed an Incubation time s.d. (listed as formaldehyde) of 92 ± 8 days.
On to `N#CS.N=C(N)N` [Guanidinium thiocyanate], for which the Incubation time s.d. was above 260 days, the Sick/total is listed as 0/6 and the “Infectivity of treated prion-coated wires” value is recorded as “completely non-infectious”.
`[Na+].[OH-]` [Sodium hydroxide]: the Incubation time s.d. is given as above 260 days, the Sick/total was 0/6 and the “Infectivity of treated prion-coated wires” value is on record as “completely non-infectious”.
